# Results published in publication PMC11825904 (Nature Communications, 2025).
# What was measured:
# rNsp5-L50F/E166V = format: cell-based, SARS-CoV-2; conditions: read-out: rNsp5-L50F/E166V EC50
# rNsp5-L50F/E166A/L167F = format: cell-based, SARS-CoV-2; conditions: read-out: rNsp5-L50F/E166A/L167F EC50
compound,measurement,setting,value
"CC(C)(C)[C@H](NC(=O)C(F)(F)F)C(=O)N1C[C@H]2[C@@H]([C@H]1C(=O)N[C@H](C#N)C[C@@H]1CCNC1=O)C2(C)C [Nirmatrelvir, nirmatrelvir]",EC50,rNsp5-L50F/E166V,> 1 µM
same,EC50,rNsp5-L50F/E166A/L167F,0.63 µM
